Read-outs that look alike come from different tables or passages of the source.
Key:
hSTING (HAQ) = molecular target: T1, hSTING (HAQ) (Homo sapiens, UniProt Q86WV6, G230A/H232R/R293Q/R71H); experiment: Luciferase reporter assay in HEK293T-hSTING-Luciferase cells (HAQ polymorph); assay type: cell-based; conditions: EC50 range
T1 construct: host or cells: HEK293T
From the text: (§1) • a) Stable STING expressing cells—Stable HEK293T STING-expressing cell lines were generated using plasmids purchased from Invivogen, CA, USA, that contain STING cDNA cloned into the pUNO-1 vector under hEF1-HTLV promoter and containing the Blasticidin selection cassette. The plasmids hSTING (R232), hSTING (H232), hSTING (HAQ) were directly procured from Invivogen while hSTING (AQ) and hSTING (Q) were derived from hSTING (HAQ) and hSTING (R232) plasmids respectively by using a PCR based site directed mutagenesis method. These vectors were individually transfected into HEK293T cells using Lipofectamine (Invitrogen) and transfected cells were selected under Blasticidin selection. These transfected cells were further subjected to clonal selection using the limiting dilution method to obtain clonally pure populations of HEK cells transfected with each of the above mentioned human STING variants. Only those clones were selected in which ligand independent activation of STING was minimal. • b) Stable Luciferase reporter gene expressing cells—Stable HEK293T Luciferase reporter gene expressing cell lines were generated using pCDNA4 plasmids under an IRF-inducible promoter. This promoter is comprised of five tandem interferon-stimulated response elements (ISRE) fused to an ISG54 minimal promoter. This vector was transfected into HEK293T cells using Lipofectamine (Invitrogen) and transfected cells were selected under Zeocin selection. These transfected cells were further subjected to clonal selection using the limiting dilution method to obtain clonally pure populations of HEK cells transfected the Luciferase reporter construct. Only those clones were selected in which ligand independent induction of luciferase was minimal.
(§2) 5×10^5 clonally selected HEK293T-hSTING-Luciferase cells were seeded in 384-well plates in growth medium and stimulated with novel compounds. After 20 hr of stimulation supernatant were removed and secretary reporter gene activity were measured using the Quanti-Luc detection system (Invivogen) on a Spectramax i3X luminometer.
(§3) The 5 major polymorphisms of human STING are shown in FIG. 1, with their prevalence in human populations indicated.

hSTING (H232) = molecular target: T2, hSTING (H232) (Homo sapiens, UniProt Q86WV6); experiment: Luciferase reporter assay in HEK293T-hSTING-Luciferase cells (H232/REF polymorph); assay type: cell-based; conditions: EC50 range
T2 construct: host or cells: HEK293T
From the text: as §1, §2, §3

WT/R232 STING protein = molecular target: T3, WT/R232 STING protein (Homo sapiens, UniProt Q86WV6, H232R); experiment: Luciferase reporter assay in HEK293T-hSTING-Luciferase cells (R232); assay type: cell-based; conditions: 20 hr stimulation, EC50 range
T3 construct: host or cells: HEK293T
Procedure, shortened: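 Clonal HEK293T cells stably expressing human STING R232 plus an ISRE/ISG54-driven secreted luciferase reporter, stimulated with compounds for 20 hr. Luciferase in supernatant read by luminescence; activity given as fold-induction over baseline.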

NF-κB pathway = experiment: Reporter gene expression assay for NFκB axis in THP1-Dual cells (secreted SEAP); assay type: cell-based, human; conditions: 20 hr stimulation, QUANTI-Blue SEAP, EC50 range, read-out: THP-NFKB activity
Protocol: (§4) THP1-Dual™ cells (Invivogen) were derived from the human THP-1 monocyte cell line by stable integration of two inducible reporter constructs. As a result, THP1-Dual™ cells allow the simultaneous study of the NF-κB pathway, by monitoring the activity of secreted SEAP, and the IRF pathway, by assessing the activity of a secreted luciferase (Lucia). […] THP1-Dual™ cells were seeded in 384-well plates in growth medium and stimulated with novel compounds. After 20 hr of stimulation supernatant were removed and reporter proteins were readily measured in the cell culture supernatant using QUANTI-Blue™ (Invivogen), a SEAP detection reagent, and QUANTI-Luc™ (Invivogen), a luciferase detection reagent on a Spectramax i3X luminometer. EC50 value ranges for exemplary compounds tested in the above assay are given.

IRF pathway = experiment: Reporter gene expression assay for IRF axis in THP1-Dual cells (secreted Lucia luciferase); assay type: cell-based, human; conditions: Homo sapiens, THP1-Dual, 20 h, 20 hr stimulation, QUANTI-Luc, EC50 range, read-out: THP-IRF activity
Protocol: as §4

T3 sequence (Q86WV6 whole entry H232R): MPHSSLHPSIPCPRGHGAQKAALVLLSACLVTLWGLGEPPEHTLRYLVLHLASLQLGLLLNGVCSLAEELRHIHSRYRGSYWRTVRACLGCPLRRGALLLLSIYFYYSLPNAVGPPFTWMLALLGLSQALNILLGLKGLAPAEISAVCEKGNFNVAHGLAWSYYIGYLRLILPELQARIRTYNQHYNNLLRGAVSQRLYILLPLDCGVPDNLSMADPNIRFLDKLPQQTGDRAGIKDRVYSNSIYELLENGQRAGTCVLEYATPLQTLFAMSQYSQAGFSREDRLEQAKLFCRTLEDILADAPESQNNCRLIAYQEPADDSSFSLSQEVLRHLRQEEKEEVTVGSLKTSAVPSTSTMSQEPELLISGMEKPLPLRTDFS
T1 sequence (Q86WV6 whole entry R71H/G230A/H232R/R293Q): as the sequence (Q86WV6 whole entry H232R) above, with R71H, G230A, R293Q counted along it
T2 sequence (Q86WV6 whole entry): as the sequence (Q86WV6 whole entry H232R) above, with R232H counted along it

Structure (SMILES)	EC50 (hSTING (HAQ)) [nM]	EC50 (hSTING (H232)) [nM]	EC50 (WT/R232 STING protein) [nM]	EC50 (NF-κB pathway; Homo sapiens, THP1-Dual, 20 h) [nM]	EC50 (IRF pathway) [nM]	EC50 (NF-κB pathway) [nM]
CC1(C)C(=O)N(Cc2noc3ccccc23)c2cc(C(=O)NCc3c(F)cc(F)cc3F)ccc21 [Example 98, 1-(benzo[d]isoxazol-3-ylmethyl)-3,3-dimethyl-2-oxo-N-(2,4,6-trifluorobenzyl)indoline-6-carboxamide]	1000 to 10000	≤ 1000	≤ 1000	> 10000	> 10000	–
CC1(C#N)C(=O)N(Cc2c(F)cccc2Cl)c2cc(C(=O)NCc3c(F)cc(F)cc3F)ccc21 (centres unmarked) [Example 164, 1-(2-chloro-6-fluorobenzyl)-3-cyano-3-methyl-2-oxo-N-(2,4,6-trifluorobenzyl)indoline-6-carboxamide]	1000 to 10000	≤ 1000	≤ 1000	–	> 10000	> 10000
COc1cc(F)cc(CN2C(=O)C(C)(C)c3ccc(C(=O)NCc4c(F)cc(F)cc4F)cc32)c1 [Example 89, 1-(3-fluoro-5-methoxybenzyl)-3,3-dimethyl-2-oxo-N-(2,4,6-trifluorobenzyl)indoline-6-carboxamide]	≤ 1000	≤ 1000	≤ 1000	1000 to 10000	1000 to 10000	–
Cc1nn(C)c(CN2C(=O)C(C)(C)c3ccc(C(=O)NCc4c(F)cc(F)cc4F)cc32)c1Br [Example 106, 1-((4-bromo-1,3-dimethyl-1H-pyrazol-5-yl)methyl)-3,3-dimethyl-2-oxo-N-(2,4,6-trifluorobenzyl)indoline-6-carboxamide]	≤ 1000	≤ 1000	≤ 1000	1000 to 10000	1000 to 10000	–
CC1(C)C(=O)N(Cc2c(F)cccc2Cl)c2cc(C(=O)NCc3c(F)cc(F)cc3F)ccc21 [Example 2, 1-(2-chloro-6-fluorobenzyl)-3,3-dimethyl-2-oxo-N-(2,4,6-trifluorobenzyl)indoline-6-carboxamide]	≤ 1000	≤ 1000	≤ 1000	1000 to 10000	1000 to 10000	–
CC1(C)C(=O)N(Cc2cc(F)cc(F)c2)c2nc(C(=O)NCc3cc4ccccc4o3)ccc21 [Example 182, N-(benzofuran-2-ylmethyl)-1-(3,5-difluorobenzyl)-3,3-dimethyl-2-oxo-2,3-dihydro-1H-pyrrolo[2,3-b]pyridine-6-carboxamide]	1000 to 10000	1000 to 10000	1000 to 10000	> 10000	> 10000	–
CC1(C)C(=O)N(Cc2ccc(N=[N+]=[N-])cc2)c2cc(C(=O)NCc3c(F)cc(F)cc3F)ccc21 [Example 56, 1-(4-azidobenzyl)-3,3-dimethyl-2-oxo-N-(2,4,6-trifluorobenzyl)indoline-6-carboxamide]	1000 to 10000	1000 to 10000	≤ 1000	> 10000	> 10000	–
Cc1ccc(CNC(=O)c2ccc3c(c2)N(Cc2cc(F)cc(F)c2)C(=O)C3(C)C)o1 [Example 16, 1-(3,5-difluorobenzyl)-3,3-dimethyl-N-((5-methylfuran-2-yl)methyl)-2-oxoindoline-6-carboxamide]	1000 to 10000	1000 to 10000	1000 to 10000	> 10000	> 10000	–
Cc1cccc(CN2C(=O)C(C)(C)c3ccc(C(=O)NCc4c(F)cc(F)cc4F)cc32)c1F [Example 73, 1-(2-fluoro-3-methylbenzyl)-3,3-dimethyl-2-oxo-N-(2,4,6-trifluorobenzyl)indoline-6-carboxamide]	≤ 1000	≤ 1000	≤ 1000	1000 to 10000	1000 to 10000	–
CC1(Cl)C(=O)N(Cc2cc(F)cc(F)c2)c2cc(C(=O)NCc3c(F)cc(F)cc3F)ccc21 (centres unmarked) [Example 144, 3-Chloro-1-(3,5-difluorobenzyl)-3-methyl-2-oxo-N-(2,4,6 trifluorobenzyl) indoline-6-carboxamide]	1000 to 10000	1000 to 10000	≤ 1000	–	> 10000	1000 to 10000
CC1(C)C(=O)N(Cc2cc(F)cc(F)c2)c2nc(C(=O)NCc3ccc(F)cc3)ccc21 [Example 189, 1-(3,5-difluorobenzyl)-N-(4-fluorobenzyl)-3,3-dimethyl-2-oxo-2,3-dihydro-1H-pyrrolo[2,3-b]pyridine-6-carboxamide]	1000 to 10000	1000 to 10000	≤ 1000	> 10000	> 10000	–
C=CCC1(C)C(=O)N(Cc2cc(C)nn2CC)c2cc(C(=O)NCc3c(F)cc(F)cc3F)ccc21 (centres unmarked) [Example 175, 3-allyl-1-((1-ethyl-3-methyl-1H-pyrazol-5-yl)methyl)-3-methyl-2-oxo-N-(2,4,6-trifluorobenzyl)indoline-6-carboxamide]	1000 to 10000	1000 to 10000	1000 to 10000	1000 to 10000	1000 to 10000	–
CC1(C)C(=O)N(Cc2c(F)cccc2Cl)c2cc(C(=O)NCc3cc4cc(F)ccc4o3)ccc21 [Example 75, 1-(2-chloro-6-fluorobenzyl)-N-((5-fluorobenzofuran-2-yl)methyl)-3,3-dimethyl-2-oxoindoline-6-carboxamide]	≤ 1000	≤ 1000	≤ 1000	1000 to 10000	1000 to 10000	–
CC1(C)C(=O)N(Cc2cc(F)cc(F)c2)c2cc(C(=O)NCc3c(F)cc(F)cc3F)ccc21 [Example 5, 1-(3,5-difluorobenzyl)-3,3-dimethyl-2-oxo-N-(2,4,6-trifluorobenzyl)indoline-6-carboxamide]	≤ 1000	≤ 1000	≤ 1000	1000 to 10000	1000 to 10000	–
Cc1cc(CN2C(=O)C(C)(C)c3ccc(C(=O)NCc4c(F)cc(F)cc4F)cc32)nn1C [Example 81, 1-((1,5-dimethyl-1H-pyrazol-3-yl)methyl)-3,3-dimethyl-2-oxo-N-(2,4,6-trifluorobenzyl)indoline-6-carboxamide]	1000 to 10000	1000 to 10000	1000 to 10000	1000 to 10000	1000 to 10000	–
CC1(C)C(=O)N(Cc2c(F)cccc2OC(F)F)c2cc(C(=O)NCc3c(F)cc(F)cc3F)ccc21 [Example 111, 1-(2-(difluoromethoxy)-6-fluorobenzyl)-3,3-dimethyl-2-oxo-N-(2,4,6-trifluorobenzyl)indoline-6-carboxamide]	≤ 1000	≤ 1000	≤ 1000	1000 to 10000	1000 to 10000	–
CC1(C)C(=O)N(Cc2c(F)cccc2F)c2cc(C(=O)NCc3c(F)cc(F)cc3F)ccc21 [Example 109, 1-(2,6-difluorobenzyl)-3,3-dimethyl-2-oxo-N-(2,4,6-trifluorobenzyl)indoline-6-carboxamide]	≤ 1000	≤ 1000	≤ 1000	1000 to 10000	1000 to 10000	–
Cc1cc(CN2C(=O)C(C)(C)c3ccc(C(=O)NCc4c(F)cc(F)cc4F)cc32)ccn1 [Example 54, 3,3-dimethyl-1-((2-methylpyridin-4-yl)methyl)-2-oxo-N-(2,4,6-trifluorobenzyl)indoline-6-carboxamide]	1000 to 10000	1000 to 10000	1000 to 10000	> 10000	> 10000	–
Cc1cccc(CN2C(=O)C(C)(C)c3ccc(C(=O)NCc4c(F)cc(F)cc4F)cc32)c1 [Example 18, 3,3-dimethyl-1-(3-methylbenzyl)-2-oxo-N-(2,4,6-trifluorobenzyl)indoline-6-carboxamide]	1000 to 10000	1000 to 10000	≤ 1000	1000 to 10000	> 10000	–

Reference: US20200172483A1, “HETEROCYCLIC SMALL MOLECULE MODULATORS OF HUMAN STING” (Curadev Pharma Limited, priority 2017, published 2020)
